Source: PubChem BioAssay AID248 (DTP/NCI, 2004)
Values joined by “and” are separate entries in the source; they are usually repeats but may differ in a detail not shown here. Identical values can stand only once. Toxic doses and inconclusive results are not listed. No stated cut-off is given here; in the data, active means T/C of 150% or more; inactive means T/C below 125%.

System: L1210 leukemia ip in BDF1 mice, survival T/C
Assay: NCI In Vivo Anticancer Drug Screen. Data for tumor model L1210 Leukemia (intraperitoneal) in B6D2F1 (BDF1) mice
Conditions: endpoint: mean survival time, higher = longer survival
Method in brief: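 Ratio derived from survival: compound-dosed mice over vehicle-dosed mice, all bearing a transplantable tumor.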

[1] = dose: 25.0 mg/kg/injection, schedule: Q04DX003 (ip), vehicle: saline
[2] = dose: 50.0 mg/kg/injection, schedule: Q04DX003 (ip), vehicle: saline
[3] = dose: 100.0 mg/kg/injection, schedule: Q04DX003 (ip), vehicle: saline with Tween-80
[4] = dose: 200.0 mg/kg/injection, schedule: Q04DX003 (ip), vehicle: saline with Tween-80
[5] = dose: 100.0 mg/kg/injection, schedule: Q01DX001 (ip), vehicle: carboxymethylcellulose (CMC)
[6] = dose: 200.0 mg/kg/injection, schedule: Q01DX001 (ip), vehicle: carboxymethylcellulose (CMC)
[7] = dose: 400.0 mg/kg/injection, schedule: Q01DX001 (ip), vehicle: carboxymethylcellulose (CMC)
[8] = dose: 100.0 mg/kg/injection, schedule: Q04DX003 (ip), vehicle: saline
[9] = dose: 200.0 mg/kg/injection, schedule: Q04DX003 (ip), vehicle: saline
[10] = dose: 100.0 mg/kg/injection, schedule: Q01DX009 (ip), vehicle: Klucel (hydroxypropylcellulose) (HPC)
[11] = dose: 100.0 mg/kg/injection, schedule: Q04DX003 (ip), vehicle: Klucel (hydroxypropylcellulose) (HPC)
[12] = dose: 200.0 mg/kg/injection, schedule: Q04DX003 (ip), vehicle: Klucel (hydroxypropylcellulose) (HPC)
[13] = dose: 400.0 mg/kg/injection, schedule: Q04DX003 (ip), vehicle: Klucel (hydroxypropylcellulose) (HPC)
[14] = dose: 400.0 mg/kg/injection, schedule: Q04DX003 (ip), vehicle: saline with Tween-80
[15] = dose: 100.0 mg/kg/injection, schedule: Q01DX009 (ip), vehicle: saline
[16] = dose: 200.0 mg/kg/injection, schedule: Q01DX009 (ip), vehicle: saline
[17] = dose: 400.0 mg/kg/injection, schedule: Q01DX009 (ip), vehicle: saline
[18] = dose: 400.0 mg/kg/injection, schedule: Q04DX003 (ip), vehicle: saline
[19] = dose: 100.0 mg/kg/injection, schedule: Q04DX002 (ip), vehicle: Klucel (hydroxypropylcellulose) (HPC)
[20] = dose: 200.0 mg/kg/injection, schedule: Q04DX002 (ip), vehicle: Klucel (hydroxypropylcellulose) (HPC)
[21] = dose: 400.0 mg/kg/injection, schedule: Q04DX002 (ip), vehicle: Klucel (hydroxypropylcellulose) (HPC)

Measured: T/C

CCCCCCCCCCCCCCCCCC[N+](C)(C)C (tested in a mixture with another compound)
inactive: dose: 0.2 mg/kg/injection, schedule: Q01DX015 (ip), vehicle: saline 104 % of control | dose: 0.5 mg/kg/injection, schedule: Q01DX015 (ip), vehicle: saline 98 % of control | dose: 1.0 mg/kg/injection, schedule: Q01DX009 (ip), vehicle: saline 108 % of control | dose: 1.0 mg/kg/injection, schedule: Q01DX015 (ip), vehicle: saline 104 % of control | dose: 2.0 mg/kg/injection, schedule: Q01DX009 (ip), vehicle: saline 100 % of control | dose: 2.0 mg/kg/injection, schedule: Q01DX015 (ip), vehicle: carboxymethylcellulose (CMC) 96 % of control | dose: 2.0 mg/kg/injection, schedule: Q01DX015 (ip), vehicle: saline 94 % of control and 103 % of control | dose: 3.0 mg/kg/injection, schedule: Q04DX003 (ip), vehicle: saline sonified 93 % of control | dose: 4.0 mg/kg/injection, schedule: Q01DX009 (ip), vehicle: saline 108 % of control | dose: 4.0 mg/kg/injection, schedule: Q01DX015 (ip), vehicle: carboxymethylcellulose (CMC) 93 % of control | dose: 4.0 mg/kg/injection, schedule: Q01DX015 (ip), vehicle: saline 96 % of control | dose: 5.0 mg/kg/injection, schedule: Q01DX015 (ip), vehicle: saline 103 % of control | dose: 6.0 mg/kg/injection, schedule: Q04DX003 (ip), vehicle: saline sonified 103 % of control | dose: 8.0 mg/kg/injection, schedule: Q01DX009 (ip), vehicle: saline 97 % of control | dose: 8.0 mg/kg/injection, schedule: Q01DX015 (ip), vehicle: saline 94 % of control | dose: 10.0 mg/kg/injection, schedule: Q01DX015 (ip), vehicle: saline 91 % of control | dose: 12.5 mg/kg/injection, schedule: Q01DX009 (ip), vehicle: saline 101 % of control | dose: 16.0 mg/kg/injection, schedule: Q04DX003 (ip), vehicle: saline 105 % of control | dose: 25.0 mg/kg/injection, schedule: Q01DX001 (ip), vehicle: saline 117 % of control | dose: 25.0 mg/kg/injection, schedule: Q01DX009 (ip), vehicle: saline 95 % of control | [1] 96 % of control | [2] 87 % of control

COc1cccc2ccccc12
inactive: [3] 96 % of control | [4] 94 % of control

O=C1NC(=O)C(=Cc2ccccc2[N+](=O)[O-])C(=O)N1
inactive: [5] 93 % of control | [6] 91 % of control | [7] 87 % of control

CN1CCCC(C)(CN2c3ccccc3Sc3ccccc32)C1 (stereo not given)
inactive: [8] 111 % of control | [9] 105 % of control

CCOC(=O)C(=O)c1c2cn(O)nc(OC)c-2nc1[N+](=O)[O-]
inactive: dose: 12.5 mg/kg/injection, schedule: Q04DX002 (ip), vehicle: saline with Tween-80 89 % of control | dose: 25.0 mg/kg/injection, schedule: Q04DX002 (ip), vehicle: saline with Tween-80 96 % of control | dose: 50.0 mg/kg/injection, schedule: Q04DX002 (ip), vehicle: saline with Tween-80 96 % of control

Nc1cc(C(=O)O)[nH]c(=S)n1
inactive: dose: 100.0 mg/kg/injection, schedule: Q01DX Z (ip), vehicle: methylcellulose (MC) 100 % of control | dose: 200.0 mg/kg/injection, schedule: Q01DX Z (ip), vehicle: methylcellulose (MC) 100 % of control

O=C(O)c1ccc(Cl)cc1Nc1ccc(F)cc1
inactive: dose: 100.0 mg/kg/injection, schedule: Q01DX001 (ip), vehicle: Klucel (hydroxypropylcellulose) (HPC) 100 % of control | [10] 96 % of control | dose: 200.0 mg/kg/injection, schedule: Q01DX001 (ip), vehicle: Klucel (hydroxypropylcellulose) (HPC) 100 % of control | dose: 400.0 mg/kg/injection, schedule: Q01DX001 (ip), vehicle: Klucel (hydroxypropylcellulose) (HPC) 100 % of control

C=CCNC(=S)Nc1ccc(C)cc1
inactive: dose: 50.0 mg/kg/injection, schedule: Q01DX009 (ip), vehicle: Klucel (hydroxypropylcellulose) (HPC) 95 % of control | [10] 97 % of control | [11] 103 % of control | dose: 200.0 mg/kg/injection, schedule: Q01DX009 (ip), vehicle: Klucel (hydroxypropylcellulose) (HPC) 100 % of control | [12] 101 % of control | [13] 88 % of control

N#C[S-].N#C[S-].[Au+3].[Au+3].[CH3-].[CH3-].[CH3-].[CH3-]
inactive: dose: 50.0 mg/kg/injection, schedule: Q01DX009 (ip), vehicle: saline with Tween-80 96 % of control | dose: 100.0 mg/kg/injection, schedule: Q01DX009 (ip), vehicle: saline with Tween-80 109 % of control | dose: 200.0 mg/kg/injection, schedule: Q01DX009 (ip), vehicle: saline with Tween-80 105 % of control

CC[N+](CC)(CCOC(=O)C1C2CC3OC(=O)C1C3C2)Cc1ccccc1 (stereo not given)
inactive: dose: 12.5 mg/kg/injection, schedule: Q04DX003 (ip), vehicle: saline 89 % of control | [1] 89 % of control | [2] 106 % of control | [8] 93 % of control

CC(C(O)c1cccs1)C(O)(C(F)(F)F)C(F)(F)F (stereo not given)
inactive: [3] 102 % of control | [4] 91 % of control | [14] 88 % of control

O=C(O)c1cc(Cl)ccc1O
inactive: dose: 100.0 mg/kg/injection, schedule: Q04DX002 (ip), vehicle: other 100 % of control | dose: 200.0 mg/kg/injection, schedule: Q04DX002 (ip), vehicle: other 103 % of control

COc1ccc(C=NCCc2ccc(OC)c(OC)c2)cc1OC
inactive: [15] 89 % of control | [8] 102 % of control | [16] 98 % of control | [9] 97 % of control | [17] 97 % of control | [18] 105 % of control

Clc1ccccc1C(c1ccc(-c2ccccc2)cc1)(c1ccc(-c2ccccc2)cc1)n1ccnc1
inactive: [11] 95 % of control | [12] 104 % of control | [13] 90 % of control

N#CC(C(=O)c1ccccc1)c1ccccc1 (stereo not given)
inactive: dose: 62.5 mg/kg/injection, schedule: Q04DX002 (ip), vehicle: Klucel (hydroxypropylcellulose) (HPC) 108 % of control | dose: 125.0 mg/kg/injection, schedule: Q04DX002 (ip), vehicle: Klucel (hydroxypropylcellulose) (HPC) 96 % of control

Cc1ccc(S(=O)(=O)CC(=O)NC(N)=O)cc1
inactive: [8] 92 % of control | [9] 103 % of control | [18] 105 % of control

CCC(C)C1NC(=O)C2C(CCN2C(=O)C(NC(=O)C(Cc2ccccc2)N(C)C)C(C)CC)Oc2ccc(cc2)/C=C\NC1=O (stereo not given)
inactive: [8] 94 % of control | [9] 97 % of control | [18] 92 % of control

Cc1ccc([N+](=O)[O-])cc1NC(=O)N(CC(O)c1ccccc1)C1CCCCC1 (stereo not given)
inactive: [19] 90 % of control | [20] 97 % of control | [21] 95 % of control

CCOc1cc(-c2nc3ccccc3s2)ccc1O
inactive: [3] 96 % of control | [4] 101 % of control | [14] 96 % of control

NC(=O)CNCCS(=O)(=O)O
inactive: [15] 101 % of control | [8] 97 % of control | [16] 107 % of control | [9] 97 % of control | [17] 101 % of control | [18] 100 % of control

COc1ccc(OC)c(CCCC(=O)O)c1
inactive: dose: 50.0 mg/kg/injection, schedule: Q01DX001 (ip), vehicle: carboxymethylcellulose (CMC) 108 % of control | [5] 104 % of control | [6] 104 % of control | [7] 102 % of control

O=C(OCCOc1ccc(Cl)cc1Cl)c1cc(I)cc(I)c1I
inactive: [19] 111 % of control | [20] 101 % of control | [21] 104 % of control

O=[N+]([O-])c1cc(Br)cc(Br)c1O
inactive: dose: 25.0 mg/kg/injection, schedule: Q04DX002 (ip), vehicle: Klucel (hydroxypropylcellulose) (HPC) 109 % of control | dose: 50.0 mg/kg/injection, schedule: Q04DX002 (ip), vehicle: Klucel (hydroxypropylcellulose) (HPC) 98 % of control | [19] 98 % of control and 91 % of control
